According to US20190211317A1, “PEPTIDES AND NANOPARTICLES FOR INTRACELLULAR DELIVERY OF GENOME-EDITING MOLECULES” (Aadigen, LLC, priority 2016, published 2019):
Several values for one entry are separate records, joined by “and”; a condition that tells them apart may be missing. Equal values may be shown once.

What was measured:
[1] = test system: primary human T cells; assay: CAS9 protein expression in primary human T cells after CAS9 mRNA or plasmid delivery (ELISA); assay type: cell-based; details: day 3
Procedure: T cells were isolated from PBMCs using anti-CD3/anti-CD28 antibodies bound to paramagnetic beads (Dynabeads ClinExVivo CD3/CD28, Invitrogen) at a ratio of 3:1 (beads:cells). The cells and beads were co-incubated for 2 hours at room temperature and CD3^+ cell enrichment was performed using Dynal ClinExVIVO MPC magnet (Thermo Fisher). The anti-CD3/anti-CD28 paramagnetic beads were removed, washed and concentrated. Cells in the CD3^+ fraction were resuspended in activation media at a concentration of 1×10^6 cells/ml with AIM-V medium (Thermo Fishers) supplemented with 10% fetal calf serum, 300 IU/ml IL2 and 50 ng/ml OKT3 (MuromonAB-CD3) for two days.
CPP/CAS9 complexes were formed by mixing the CAS9 mRNA (0.5 μg) with CPP at a 20:1 molar ratio of CPP:CAS9 mRNA and incubating for 30 min at 37° C. prior to cell transfection. CPP/CAS9-expressing plasmid complexes were formed by mixing the CAS9-expressing plasmid (Addgene MLM3639-Plasmid #42252) (0.5 μg) with CPP at a 20:1 molar ratio of CPP:plasmid and incubating for 30 min at 37° C. prior to cell transfection.
Cells were transfected according to the protocol for suspension cells described in Example 13a. RNAiMAX and lipofectamine 2000 lipid-based delivery methods (Invitrogen Thermo Fisher France) were used as controls, and transfections were performed following the manufacturer's instructions. CAS9 protein expression level was analyzed at multiple time points over a period of 10 days as determine by ELISA on protein extracts using antibodies against CRISPR/Cas9 obtained from Diagenode (Diagenode cat. No. C15200223) and ABCAM (clone 7A9-ab191468).

[2] = test system: U2OS and HEPG2 cell lines and primary human fibroblasts; assay: CAS9 protein expression after CPP delivery of CAS9-expressing plasmid (ELISA); assay type: cell-based; details: U2OS, HEPG2, primary human fibroblasts; day 6; plasmid 0.5 μg
Procedure: CPP/plasmid complexes were prepared by mixing 0.5 μg of a CAS9-expressing plasmid (Addgene MLM3639-Plasmid #42252) with CPP at a 20:1 molar ratio of CPP:cargo and incubating for 30 min at 37° C. prior to cell transfection. Cells were transfected according to the protocols for adherent and suspension cells described in Example 13a. Lipofectamine 2000 was used as lipid-based delivery control. CAS9 protein expression level was analyzed at multiple time points over a period of 10 days as determined by ELISA on protein extracts using antibodies against CRISPR/Cas9 obtained from Diagenode (Diagenode cat. No. C15200223) and ABCAM (clone 7A9-ab191468).

[3] = test system: U2OS, HEPG2, K562 cells and primary human fibroblasts; assay: CAS9 protein expression after CPP delivery of CAS9 mRNA (ELISA); assay type: cell-based; details: day 3; cell types not specified
Procedure: CPP/CAS9 mRNA complexes were formed by mixing the CAS9 mRNA (0.5 μg) with CPP at a 20:1 molar ratio of CPP:CAS9 mRNA and incubating for 30 min at 37° C. prior to cell transfection. Cells were transfected according to optimized protocols for either adherent or suspension cell lines.
Human primary fibroblasts were freshly obtained and grown in flasks pre-coated with a gelatin-based coating solution and incubated in Culture Complete Growth Medium for 3 days before expansion and treatment. U2OS cells were cultured in Dulbecco's Modified Eagle's Medium (DMEM), supplemented with 2 mM glutamine, 1% antibiotics (streptomycin 10,000 μg/mL, penicillin, 10,000 IU/mL) and 10% (w/v) foetal calf serum (FCS), at 37° C. in a humidified atmosphere containing 5% CO2. 35 mm dishes seeded with 150,000 cells the day prior to transfection were grown to 50-60% confluence and set up to be at about 70% confluences at the time of transfection. Before transfection, cells were washed with DMEM (2×) followed by PBS (1×). Cells were then overlaid with 0.2 ml of complex solution (16 μl CPP/Cargo complex in water+184 μl OPTiMEM without antibiotics), mixed gently, and incubated for 10 min at 37° C. 0.8 mL of fresh OPTiMEM or DMEM was then added and cells were incubated for 20 min at 37° C. 2 mL of complete OPTiMEM (high glucose) or DMEM containing 11.4% FCS was then added in order to reach a final FCS concentration of 10%, without removing the overlay of CPP/Cargo complexes. Cells were returned to the incubator (37° C., 5% CO2) and assayed at 72 hours post transfection.
K562 and HEpG2 cells were set up to be at about 70% confluence at the time of transfection. The cells were maintained in high glucose DMEM media with 10% serum. Before transfection, cells were harvested by centrifugation, then washed with DMEM (2×) followed by PBS (1×). Cells were then resuspended in 0.2 ml of complex solution (16 μl CPP/Cargo complex in water+184 μl OPTiMEM without antibiotics), mixed gently, and incubated for 10 min at 37° C. 0.8 mL of fresh OPTiMEM was then added and cells were incubated for 20 min at 37° C. 2 mL of complete OPTiMEM (high glucose) containing 11.4% FCS was then added in order to reach a final FCS concentration of 10%, without removing the overlay of CPP/Cargo complexes. Cells were returned to the incubator (37° C., 5% CO2) and assayed at 72 hours post transfection.
RNAiMAX lipid-based delivery (Invitrogen Thermo Fisher France) was used as a control and transfections were performed following the manufacturer's instructions. CAS9 expression level was analyzed at multiple time points over a period of 10 days as determined by ELISA on protein extracts using antibodies against CRISPR/Cas9 obtained from Diagenode (Diagenode cat. No. C15200223) and ABCAM (clone 7A9-ab191468).

[4] = test system: Primary T cells
Procedure: The toxicity of CPP/CAS9/gRNA complexes was investigated in the two cell lines (JURKAT and K562) and in PBMC-isolated T cells. Cell viability was determined using either MTT assay or 7-AAD.
Data were normalized to untransfected cells and compared to T cells incubated with free CAS9/gRNA.

[5] = test system: Swiss mice; details: CAS9 protein 5 μg/VEPEP-3a 20:1; single i.v.; 12-72 hr
Procedure: Free CAS9 protein in physiological buffer was injected as a negative control, and administration of LPS was used as a positive control for cytokine activation. […] Serum cytokine levels were measured using The Cytokine Mouse Magnetic 20-Plex Panel from Invritrogen (LMC 0006M).

[6] = test system: hPD1 gene in human T cells; assay: hPD1 gene editing in primary human T cells (T7E1 assay); assay type: cell-based
Procedure: T cells were isolated from PBMCs (2 different donors) using anti-CD3/anti-CD28 antibodies bound to paramagnetic beads (Dynabeads ClinExVivo CD3/CD28, Invitrogen) at a ratio of 3:1 (beads:cells). The cells and beads were co-incubated for 2 hours at room temperature and CD3′ cell enrichment was performed using Dynal ClinExVIVO MPC magnet (Thermo Fisher). The anti-CD3/anti-CD28 paramagnetic beads were removed, washed and concentrated. Cells in the CD3′ fraction were resuspended in activation media at a concentration of 1×10^6 cells/ml with AIM-V medium (Thermo Fishers) supplemented with 10% fetal calf serum, 300 IU/ml IL2 and 50 ng/ml OKT3 (MuromonAB-CD3) for two days.
Cells were transfected by electroporation with CD-19 plasmid or gRNA/CAS9 (5 μg/10 μg) using a Nucleofector 2b (Lonza, Germany) with the Amaxa Human T cells Nucleofector Kit, VPA-1002 (Lonza, Germany). 5×10^6 cells were washed twice with DPBS by centrifuging at 800 rpm for 5 minutes and resuspended in 100 ^l transfection buffer, and then transferred into the electroporation cuvette. An optimized program selected for both high transfection and high efficiency on T cells was used. After electroporation, cells were resuspended in 500 ^l pre-warmed AIM-V medium containing 10% FBS and incubated at 37° C. in 5% CO2. The transfection efficiency was evaluated after 48 hr by flow cytometry or T7E1 assay.
As control, CAS9 loaded with gRNA targeting GFP was used.
Cells were returned to the incubator for 72 hours. CAS9-induced double-strand break followed by repair through non-homologous end joining (NHEJ) was analyzed by either the T7E1 assay or using the Genome Cleavage Detection kit (GCD Thermo Fisher) and quantified using Fragment Analyzer System. The indel frequency in the target gene was quantified using the T7E1 assay. The cultures were expanded and analyzed for viability and PD1 levels every 10 days. T cell expansion medium contained AIM V medium, supplemented with 5% heat-inactivated human AB Serum, 1% Gluta-Max, and 300 IU/mL IL-2.

[7] = test system: JURKAT and K562 cells; assay: Toxicity of CPP/CAS9/gRNA complexes in T cell lines (MTT assay); assay type: cell-based, human; details: up to 100 nM, 24 h
Procedure: A total of 30,000 JURKAT or K562 cells seeded in 24-well plates the day prior to transfection were incubated with increasing concentrations of CPP/CAS9/gRNA complexed at 20:1 molar ratio (CPP to CAS9/gRNA) ranging from 1 nM to 200 nM for 30 min prior to addition of medium to reach a final 10% concentration of FCS. Cytotoxic response was measured 24 hours later by colorimetric MTT assay (Sigma, Germany). For MTT assay, cell culture medium was removed and replaced with PBS containing 2.5 mg/ml of MTT for 4 hours. Results correspond to the average of 3 independent experiments.

[8] = test system: E-Catenin gene in mouse muscle myoblast cells (C2C12); assay: ü-Catenin gene disruption in C2C12 myoblasts (PCR gel); assay type: cell-based; details: undifferentiated and differentiated C2C12
Procedure: Cells were transfected with CAS9/gRNA (2.5 μM/5 μM) complexes associated with CPP (+) or not (−) at a molar ratio of 20:1 (peptide to complex) and compared to delivery by RNAiMAX for E-Catenin expression. ü-actin expression was included as a loading control.
(§1) […] Delivery by RNAiMAX was included as a positive control.
(§2) CAS9-induced NHEJ was analyzed 72 hours after transfection by PCR (FIG. 26) and T7E1 assay (FIG. 27). The deletion (indel) frequencies in the HPRT gene were quantified using a T7E1 assay by quantifying the amount of uncut vs cut DNA using a Fragment Analyzer System. Data for on-target mutations induced by RGEN/gRNA are reported as an average of 3 separate experiments
(§3) The cell line was maintained in 5% CO2 at 37° C. and cell viability was assessed by the Trypan Blue exclusion test. To induce myogenic differentiation, at about 80% cell confluence the medium containing 10% fetal calf serum was substituted with medium containing 1% fetal calf serum. The cells were transfected at the undifferentiated stage or at day 7 after differentiation.

[9] = test system: HPRT gene in mouse muscle myoblast cells (C2C12); assay: HPRT gene editing in C2C12 myoblasts (T7E1 assay); assay type: cell-based
Procedure: as §1, §2, §3

[10] = test system: hPD1 gene in human T cells; assay: Simultaneous delivery of CAR plasmid and CAS9/gRNA: hPD1 editing (T7E1); assay type: cell-based; details: for mean indel frequency: two donors
Procedure: Cells were incubated for 5 min, then 300 μl of serum free RPMI-1640 medium was added. After 30 min, 1.2 mL of full medium was added and serum level was adjusted to 10%. As control, CAS9 loaded with gRNA targeting GFP was used. For comparison with electroporation methods, cells were transfected with the anti-CD-19 CAR plasmid (5 μg) and gRNA/CAS9 (5 μg/10 μg) using Nucleofector 2b (Lonza, Germany) with the Amaxa Human T cells Nucleofector Kit, VPA-1002 (Lonza, Germany).
On day 5, the level of transduced and untransduced cells was analyzed, and cells were transferred to fresh T cell expansion medium. The cultures were analyzed for viability and anti-CD19 CAR expression by flow cytometry. The expression of the anti-CD19 CAR in the T cells was evaluated by flow cytometry using a Protein L assay. […] 7-AAD (Sigma) was used to determine viability. CAS9-induced double-strand break followed by repair through NHEJ system was analyzed by either the T7E1 assay or using the Genome Cleavage Detection kit (GCD Thermo Fisher) and quantified using Fragment Analyzer System. The indel frequency in the target gene was quantified using the T7E1 assay. The cultures were expanded and analyzed for viability, anti-CD19 expression and PD I level every 10 days. T cell expansion medium contained AIM V medium, supplemented with 5% heat-inactivated human AB Serum, 1% Gluta-Max, and 300 IU/mL IL-2.

[11] = Particle size, polydispersity and zeta potential with different cargoes (Zetasizer NANO ZS P); assay type: physicochemical; details: 20:1
Procedure: The CPP/CAS9-protein, CPP/CAS9-protein/sgRNA, CPP/CAS9-mRNA, CPP/CAS-mRNA/sgRNA particles were characterized; the mean size, polydispersity, and zeta potential were measured with a Zetasizer NANO ZS P apparatus (Malvern Ltd).
The mean size and the polydispersity of the CCP/cargo complexes were determined at 25° C. for 5 min per measurement and zeta potential was measured with a Zetasizer NANO ZS P apparatus (Malvern Ltd).

[12] = test system: endogenous hPD1 gene in JURKAT and K562 cells; assay: hPD1 gene editing in T cell lines (T7E1 assay); assay type: cell-based, human
Procedure: CAS9 protein was preloaded with purified sgRNA at a molar ratio of 1:1 and incubated for 10 min prior to forming complexes with peptides.
5×10^6 cells were washed twice with DPBS by centrifuging at 800 rpm for 5 minutes and resuspended in 100 ^l transfection buffer, and then transferred into the electroporation cuvette. An optimized program selected for both high transfection and high efficiency on T cells was used. After electroporation, cells were resuspended in 500 ^l pre-warmed AIM-V medium containing 10% FBS and incubated at 37° C. in 5% CO2. The transfection efficiency was evaluated after 48 hr by flow cytometry or T7E1 assay.
RNAiMAX delivery method was used as positive control. Cells were either resuspended in or overlaid with 100 μl of preformed complexes, incubated for 3-5 min, and then 300 μl of DMEM was added. […] The indel frequency in the hPD1 gene was quantified using the T7E1 assay.

[13] = Donor 1, CAS9/sgRNA 2.5 μg/5 μg
[14] = Donor 2, CAS9/sgRNA 2.5 μg/5 μg

N=C(N)NCCC[C@H](NC(=O)[C@H](CCCNC(=N)N)NC(=O)[C@H](CCCCN)NC(=O)[C@H](CCCNC(=N)N)NC(=O)[C@@H]1CCCN1C(=O)[C@H](Cc1c[nH]c2ccccc12)NC(=O)[C@H](CCC(=O)O)NC(=O)[C@H](CCCNC(=N)N)NC(=O)[C@H](Cc1ccccc1)NC(=O)[C@H](Cc1c[nH]c2ccccc12)NC(=O)[C@H](CCCNC(=N)N)NC(=O)[C@H](CCC(=O)O)NC(=O)[C@H](Cc1ccccc1)NC(=O)[C@H](Cc1c[nH]c2ccccc12)NC(=O)[C@H](CCCCN)NC(=O)CCN)C(=O)O [VEPEP-3a]
ELISA signal for CAS9 protein expression ([1]; CAS9-expressing plasmid 0.5 μg): little to no CAS9 expression
ELISA signal for CAS9 protein expression ([1]; CAS9 mRNA 0.5 μg): little to no CAS9 expression
ELISA signal for CAS9 protein expression [2]: little to no increase
ELISA signal for CAS9 protein expression [3]: little to no increase
average viability [4]: ≥ 80%
non-specific cytokine induction [5]: little to no impact
Mean indel Frequency ± s.e.m [6, 13]: 62 ± 5%
Mean indel Frequency ± s.e.m ([6]; Donor 1, CAS9/sgRNA 5 μg/10 μg): 65 ± 5%
Mean indel Frequency ± s.e.m [6, 14]: 67 ± 8%
Mean indel Frequency ± s.e.m ([6]; Donor 2, CAS9/sgRNA 5 μg/10 μg): 70 ± 5%
mean indel frequency of hPD1 gene ([6]; T cells from the two donors, 5 μg/10 μg CAS9/gRNA): 66%
toxicity [7]: no toxicity
editing of ü-Catenin and HPRT genes [8]: robust editing
mean indel frequency ([9]; differentiated C2C12): 73%
mean indel frequency ([9]; undifferentiated C2C12, 5 μg/10 μg CAS9/gRNA, 20:1): 81%
Mean indel Frequency ± s.e.m [10, 13]: 51 ± 5%
Mean indel Frequency ± s.e.m ([10]; Donor 1, CAS9/sgRNA 5 μg/10 μg): 57 ± 2%
Mean indel Frequency ± s.e.m [10, 14]: 53 ± 5%
Mean indel Frequency ± s.e.m ([10]; Donor 2, CAS9/sgRNA 5 μg/10 μg): 58 ± 8%
mean indel frequency ([10]; 2.5 μg/5 μg CAS9/gRNA): approximately 50%
mean indel frequency ([10]; 5 μg/10 μg CAS9/gRNA): ~57%
formation of stable nanoparticles ([11]; with CAS9-protein and CAS9-protein/gRNA complex): able to form stable nanoparticles
Mean diameter ([11]; with CAS9-protein and CAS9-protein/gRNA): about 60 nm
Mean indel Frequency ± s.e.m ([12]; JURKAT, CAS9/sgRNA 2.5 μg/5 μg): 72 ± 5%
Mean indel Frequency ± s.e.m ([12]; JURKAT, CAS9/sgRNA 5 μg/10 μg): 78% and 78 ± 7%
Mean indel Frequency ± s.e.m ([12]; K562, CAS9/sgRNA 2.5 μg/5 μg): 71 ± 6%
Mean indel Frequency ± s.e.m ([12]; K562, CAS9/sgRNA 5 μg/10 μg): 75% and 75 ± 6%
